In ChEMBL document CHEMBL2034913, “A variant peptide of buffalo colostrum β-lactoglobulin inhibits angiotensin I-converting enzyme activity” (Eur J Med Chem, 2012):
pIC50: −log10 of the molar value. Peptide text beside a SMILES is read from it.

Columns and labels:
[1] = molecular target: T1, Angiotensin-converting enzyme (Rattus norvegicus) (UniProt P47820); experiment: (§1) Inhibition of ACE from rat kidney using hippuryl-histidyl-leucine as substrate after 30 mins by UV/VIS spectrophotometry
T1 sequence (whole entry): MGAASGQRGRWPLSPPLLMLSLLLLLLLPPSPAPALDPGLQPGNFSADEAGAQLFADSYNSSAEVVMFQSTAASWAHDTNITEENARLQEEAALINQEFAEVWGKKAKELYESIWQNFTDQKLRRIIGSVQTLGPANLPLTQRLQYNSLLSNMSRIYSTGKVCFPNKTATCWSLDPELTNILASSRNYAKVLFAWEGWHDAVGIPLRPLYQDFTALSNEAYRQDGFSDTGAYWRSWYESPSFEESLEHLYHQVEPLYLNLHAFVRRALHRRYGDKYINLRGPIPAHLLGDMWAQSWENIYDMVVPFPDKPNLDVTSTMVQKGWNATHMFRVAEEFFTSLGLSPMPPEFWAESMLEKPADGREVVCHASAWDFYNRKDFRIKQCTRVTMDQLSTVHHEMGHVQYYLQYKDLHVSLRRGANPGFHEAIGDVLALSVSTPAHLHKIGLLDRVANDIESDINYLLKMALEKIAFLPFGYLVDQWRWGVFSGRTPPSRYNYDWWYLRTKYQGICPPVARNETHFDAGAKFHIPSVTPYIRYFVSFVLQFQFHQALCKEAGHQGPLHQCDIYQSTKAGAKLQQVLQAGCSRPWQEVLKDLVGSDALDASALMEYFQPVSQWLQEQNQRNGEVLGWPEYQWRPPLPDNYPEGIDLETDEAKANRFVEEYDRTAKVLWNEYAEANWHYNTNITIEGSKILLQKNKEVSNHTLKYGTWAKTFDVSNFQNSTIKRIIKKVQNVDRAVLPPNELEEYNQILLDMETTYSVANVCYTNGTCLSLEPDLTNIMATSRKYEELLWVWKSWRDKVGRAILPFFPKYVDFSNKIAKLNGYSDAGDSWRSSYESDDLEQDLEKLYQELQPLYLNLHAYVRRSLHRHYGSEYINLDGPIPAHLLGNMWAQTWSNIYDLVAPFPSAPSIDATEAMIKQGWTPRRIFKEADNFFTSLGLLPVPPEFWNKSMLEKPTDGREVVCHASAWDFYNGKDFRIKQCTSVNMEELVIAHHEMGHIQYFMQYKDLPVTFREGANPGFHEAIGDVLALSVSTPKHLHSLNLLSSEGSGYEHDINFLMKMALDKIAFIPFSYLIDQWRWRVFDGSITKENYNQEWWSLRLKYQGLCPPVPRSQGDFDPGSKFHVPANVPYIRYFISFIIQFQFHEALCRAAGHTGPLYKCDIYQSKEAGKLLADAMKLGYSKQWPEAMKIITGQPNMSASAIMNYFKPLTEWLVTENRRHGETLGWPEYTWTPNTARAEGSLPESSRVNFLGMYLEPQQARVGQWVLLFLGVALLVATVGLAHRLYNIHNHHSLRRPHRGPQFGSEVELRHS

[2] = molecular target: T2, Angiotensin-converting enzyme (Rattus norvegicus, UniProt P47820); experiment: as §1
T2 sequence (P47820 whole entry): T1 sequence (whole entry)

Question: For `CC[C@H](C)[C@H](N)C(=O)N[C@H](C(=O)N[C@@H](C)C(=O)N[C@@H](CCSC)C(=O)N[C@@H](CCCCN)C(=O)O)[C@@H](C)CC` (H-IIAMK-OH), which inhibition [1] is on record?
Answer: Dose-dependent effect

Question: And the pIC50 [2]?
Answer: 3.30
